pEC50: −log10 of the molar value.
Target: Kelch-like ECH-associated protein 1 (KEAP1) (Homo sapiens, UniProt Q14145)
Type: cell-based

Chain of Kelch-like ECH-associated protein 1 (KEAP1) (Q14145 whole entry): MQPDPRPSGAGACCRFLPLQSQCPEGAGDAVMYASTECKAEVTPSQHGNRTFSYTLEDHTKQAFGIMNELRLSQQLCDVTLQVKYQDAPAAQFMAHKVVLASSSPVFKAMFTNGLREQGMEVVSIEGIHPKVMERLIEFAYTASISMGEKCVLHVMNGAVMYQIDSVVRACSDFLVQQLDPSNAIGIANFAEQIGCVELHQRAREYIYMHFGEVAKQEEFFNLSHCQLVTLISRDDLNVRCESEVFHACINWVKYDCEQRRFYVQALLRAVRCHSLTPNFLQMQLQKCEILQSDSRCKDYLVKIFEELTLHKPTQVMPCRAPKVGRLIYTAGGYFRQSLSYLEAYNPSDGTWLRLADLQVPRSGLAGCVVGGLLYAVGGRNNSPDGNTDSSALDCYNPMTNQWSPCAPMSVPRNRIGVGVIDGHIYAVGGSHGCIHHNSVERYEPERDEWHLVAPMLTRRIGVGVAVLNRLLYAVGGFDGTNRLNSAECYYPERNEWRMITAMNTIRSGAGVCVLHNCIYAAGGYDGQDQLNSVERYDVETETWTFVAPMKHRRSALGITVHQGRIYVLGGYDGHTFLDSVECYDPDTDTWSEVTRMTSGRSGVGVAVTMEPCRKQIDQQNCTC

pEC50: 5.96
Structure (SMILES): Cc1cc(C)c(C#N)c(S(C)(=O)=O)n1 [compound 1, 2-methylsulfony-4,6-diemthyl-nicotinonitrile]

From PMC7365253 (Journal of the American Chemical Society, 2020)
